Test results taken from patent US11969497B2, “Method for producing an Entada seed extract enriched with metabolites of interest, extract produced by such a method, and cosmetic and dermocosmetic applications of such an extract” (EXSYMOL, priority 2018, dated 2024).

Tests used:
[1] = system: MMP-1 metalloproteinase; assay: MMP-1 secretion by primary human fibroblasts (NHDF) exposed to blue light, ELISA (test 6); type: cell-based; conditions: 5 mM; blue light 30 J/cm^2; non-irradiated 100, irradiated control 214
Experimental: Primary human fibroblasts (“NHDF”) were isolated from a mammoplasty from a patient. The NHDFs were cultured in DMEM medium supplemented with 4.5 g/l of glucose and 10% of FCS. They were maintained in an atmosphere at 37° C. and 10% CO2. On D-3, the fibroblasts were inoculated in 24-well plates at a rate of 15,000 cells/cm^2. On D-1, the NHDFs were incubated at 37° C. and 10% CO2 for 24 h with the extract of Entada seeds according to the invention. […] After irradiation, the cells were reincubated at 37° C. and 10% CO2 for an additional 24 h and the culture supernatants were harvested in order to perform an ELISA assay of the MMP-1 metalloproteinase (Abcam kit, ab100603). The results obtained were normalized with respect to the quantity of cells per condition and subjected to statistical analysis in triplicate.

[2] = ABTS antioxidant test (test 2a); conditions: absorbance 734 nm after 6 minutes
Experimental: (§1) This solution was then was diluted in water to obtain, under the test conditions, an absorbance of 0.5 at 734 nm. In each well of a 96-well microplate, were placed 100 μL of a solution of the extract according to the invention to be evaluated and 150 μL of oxidized ABTS solution. After 6 minutes, the absorbance was measured at 734 nm.

[3] = DPPH antioxidant test (test 2b); conditions: absorbance 517 nm after 30 minutes
Experimental: as §1
Experimentally by the DPPH test in each well of a 96 well micro plate, were placed 100 μL of a solution of the active to be evaluated and 100 μL of an ethanol solution of 1,1-diphenyl-2-picrylhydrazyle (DPPH-Aldrich D913-2) at 200 μM. After 30 minutes, the absorbance was measured at 517 nm.

[4] = Photo-induced isomerization of trans-urocanic acid under UV-B (test 1a/1b), HPLC assay; conditions: test 1b
Experimental: Two series of experiments were performed, the first with a fixed dose UV-B radiation of 300 mJ/cm^2 (test 1a), the second with a varying dose of UV-B radiation (test 1b) and using as a control a synthetic replica of entadamide A, namely the compound “(E)-N-(2-hydroxyethyl)-3-[…]” which is the subject of patent application EP 3103436.
Experimentally, the test was carried out in a 0.01 M citrate buffer of pH 5.5, the slightly acidic pH being more in relation to the acidity of the superficial skin layers in which the trans-urocanic acid marker is located. Thus, the solutions to be irradiated (20 mL), namely the control with or without the extract according to the invention, were placed in glass Petri dishes, uncovered, then subjected at room temperature to UV-B irradiation using a UV-B oven (LabOSI®). Aliquots (500 μL) were then sampled in HPLC vials to be immediately stored protected from light and at low temperature (+4/+8° C.), prior to analysis by HPLC assay. Chromatographic profiles were thus obtained, and the residual amount of trans-urocanic acid was determined.
Experimentally concerning test 1b, the study was carried out in an almost identical manner to test 1a above, with first checking that under the experimental conditions defined, trans-urocanic acid generated a significant amount of cis-urocanic acid which can be measured by HPLC analysis. […]

EC50 [2] [µM] | EC50 [3] [µM] | Compound | % of MMP-1 secreted [1] [%] | contribution of non-hydrolyzed phaseoloidin in the photoprotective activity of the extract against UV-B radiation [4] [%]
– | – | CC(=O)N[C@@H](CS)C(=O)O [N-acetyl-L-cysteine (NAC), N-acetyl-L-cysteine] | 61 | –
24 | 25 | O=C1O[C@H]([C@@H](O)CO)C(O)=C1O [ascorbic acid] | – | –
8.3 | 540 | O=C(O)Cc1cc(O)ccc1O[C@@H]1O[C@H](CO)[C@@H](O)[C@H](O)[C@H]1O [phaseoloidin, 2-O-β-D-glucopyranoside derivative of homogentisic acid] | – | > 25
